≈ marks a conversion by molar mass, not a printed value. Where “and” joins values, the source holds several entries; their conditions need not be identical. Equal entries are not always repeated. Entries after “also recorded” stand apart in the source; their conditions may differ. Where two headings read alike, the source gives them in different places. No end group written: not given here.
Assays:
[1] = test system: P. aeruginosa PA14 4.13 (phoQ); assay: microbe, parasite or virus in culture; conditions: Pseudomonas aeruginosa
[2] = target: T1, DnaK (Escherichia coli, UniProt P0A6Y8); assay: Microscale thermophoresis with His-Tag-labeled DnaK; type: binding; conditions: MST buffer
T1 construct: made in house; host or cells: E. coli BL21(DE3), pET28a T7 vector (synthetic gene, GenScript)
T1 sequence (P0A6Y8 whole entry, species assumed): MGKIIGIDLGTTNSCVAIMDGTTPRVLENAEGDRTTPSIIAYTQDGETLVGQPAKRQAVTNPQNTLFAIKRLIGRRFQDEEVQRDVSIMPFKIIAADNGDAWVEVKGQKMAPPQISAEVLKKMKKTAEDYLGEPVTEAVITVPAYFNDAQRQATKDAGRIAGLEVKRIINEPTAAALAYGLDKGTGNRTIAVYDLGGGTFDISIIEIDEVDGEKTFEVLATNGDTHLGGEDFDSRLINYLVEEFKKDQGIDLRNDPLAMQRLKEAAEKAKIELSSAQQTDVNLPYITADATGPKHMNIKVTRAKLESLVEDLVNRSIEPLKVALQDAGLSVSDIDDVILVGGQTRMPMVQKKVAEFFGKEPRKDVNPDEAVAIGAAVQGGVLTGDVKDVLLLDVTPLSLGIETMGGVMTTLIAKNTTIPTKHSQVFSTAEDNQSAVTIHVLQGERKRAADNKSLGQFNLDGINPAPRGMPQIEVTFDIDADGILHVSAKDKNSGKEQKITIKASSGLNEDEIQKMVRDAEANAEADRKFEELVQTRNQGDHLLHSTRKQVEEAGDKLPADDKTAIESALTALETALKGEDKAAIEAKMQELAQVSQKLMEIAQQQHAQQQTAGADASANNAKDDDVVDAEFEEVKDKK
Experimental: A plasmid containing the DnaK insert was designed in SnapGene and ordered commercially as a synthetic gene (Figure S11). Chemically competent BL21(DE3) cells were transformed with the plasmid vector (GenScript), and positive transformants were selected on LB + Kanamycin agar. For protein expression, 6 mL of overnight cultures inoculated with a single colony were used to initiate shake-flask expression at 300 mL scale in LB + kanamycin ([…]) + 1 mM IPTG. The flasks were cultured overnight at 220 rpm, 37 °C, and the bacteria were harvested by centrifugation the next day. Pelleted cells were stored at −20 °C. […] The collected fractions were analyzed by SDS-PAGE. […]
DnaK labeling was performed using the Nanotemper Monolith His-Tag Labeling Kit RED-tris-NTA Second Generation. […] The fluorescence variation between the samples was measured in 4 replicates with the Monolith NT.115 device in Monolith NT.115 Premium Capillaries and analyzed with the MOcontrol software (Figures S13–S15).
To each sample, 10 μL of 40 nM His-Tag-labeled DnaK was added, resulting in a final volume of 20 μL per sample. The fluorescence variations between the samples were measured by using the Monolith NT.115 device with Monolith NT.115 Premium Capillaries. The data were analyzed with MOcontrol software to determine the binding affinity between L-onc and His-Tag-labeled DnaK (Figure S16).

## CC[C@H]1OC(=O)[C@H](C)[C@@H](O[C@H]2C[C@@](C)(OC)[C@@H](O)[C@H](C)O2)[C@H](C)[C@@H](O[C@@H]2O[C@H](C)C[C@H](N(C)C)[C@H]2O)[C@](C)(O)C[C@@H](C)CN(C)[C@H](C)[C@@H](O)[C@]1(C)O [AZM, azithromycin, reference compound]
[1]; PA14, pH 7.4, read-out: MIC P. aeruginosa PA14 4.13 (phoQ), 12.5% MHB, polymyxin B resistant strain, 12.5% MHB pH 7.4, 16–20 h at 37 °C
  MIC: 16 to 32 µg/mL (≈ 21.4 to 42.7 µM)
[1]; PA14, pH 7.4, read-out: MIC P. aeruginosa PA14 4.13, supplement CSV, 12.5% MH pH 7.4
  MIC: 16 to 32 µg/mL (≈ 21.4 to 42.7 µM)

## VDKPPYLPRPRPPRRIYNR [sr-Onc] (VDKPPYLPRPRPPRRIYNR-NH2; also: all 19 residues stereorandomized (1:1 L/D mixture)) [fully stereorandomized oncocin]
[2]; 20 nM His-Tag-labeled DnaK, 50 μM peptide, 4 replicates
  DnaK binding check: negative for binding; also recorded: no detectable binding to DnaK

## VDKPPYLPRPRPPRRIYNR-NH2 [L-Onc, reference compound]
[2]; 2-fold serial dilution from 100 μM, His-Tag-labeled DnaK, read-out: KD, apparent binding to DnaK
  Kd: 29.8 µM and ~30 µM

From article PMC11571207, “Stereorandomized Oncocins with Preserved Ribosome Binding and Antibacterial Activity” (Journal of Medicinal Chemistry, 2024)
